According to patent publication US20200017495A1, “NOVEL HETEROCYCLIC COMPOUNDS AND THEIR USE IN PREVENTING OR TREATING BACTERIAL INFECTIONS” (priority 2017, published 2020):
Where two headings read alike, the source gives them in different places.

Columns and labels:
Assay type in all cases: cell-based
[1] = system: Proteus mirabilis (PMI) isolates; assay: microbe, parasite or virus in culture
Experimental: (§1) Method 2: MIC of Compounds Alone and Combined with Antibacterials Against Bacterial Isolates
(§2) Compounds of the present invention were assessed against genotyped bacterial strains (Table 3, 4) alone or in combination with an antibacterial (Table 2). […] Log phase bacterial suspensions were adjusted to a final density of 5.10^5 CFU/mL in cation-adjusted Mueller-Hinton broth (ca-MHB; Becton-Dickinson and Company) and added to each well (98 μL). Microplates were incubated for 16-20 h at 35° C. in ambient air. The MIC of the compounds was defined as the lowest concentration of said compounds that prevented bacterial growth as read by visual inspection. The MIC of ATB at each compound concentration was defined as the lowest concentration of ATB that prevented bacterial growth as read by visual inspection.

[2] = system: Salmonella typhimurium (STY) isolates; assay: MIC of compounds alone and combined with antibacterials, broth microdilution (CLSI); settings: for MIC ATB in combination: STY S3371
Experimental: as §1
(§3) Compounds of the present invention were assessed against genotyped bacterial strains (Table 3, 4) alone or in combination with an antibacterial (Table 2). […]. Briefly, compounds alone according to the invention were prepared in DMSO and spotted (2 μL each) on sterile polystyrene plates (Corning, 3788). Combinations of compounds and antibiotics dilutions were prepared in DMSO and spotted (1 μL each) on sterile polystyrene plates (Corning, 3788). Log phase bacterial suspensions were adjusted to a final density of 5.10^5 CFU/mL in cation-adjusted Mueller-Hinton broth (ca-MHB; Becton-Dickinson and Company) and added to each well (98 μL). Microplates were incubated for 16-20 h at 35° C. in ambient air. The MIC of the compounds was defined as the lowest concentration of said compounds that prevented bacterial growth as read by visual inspection. The MIC of ATB at each compound concentration was defined as the lowest concentration of ATB that prevented bacterial growth as read by visual inspection.

[3] = system: Providencia stuartii (PST) isolates; assay: as above
Experimental: as §1, §3

[4] = system: Enterobacter aerogenes (EAE) isolates; assay: as above; settings: Klebsiella aerogenes, strain EAE 49469; genotype AmpC; read-out: MIC
Experimental: as §1, §2

[5] = system: Citrobacter koseri (CKR) isolates; assay: as above
Experimental: as §1, §2

COCC1=C(C(=O)O)N2C(=O)[C@@H](NC(=O)/C(=N\OC)c3csc(N)n3)[C@H]2SC1 [POD, Cefpodoxime]
MIC ([1]; Proteus mirabilis, strain PMI UFR82, genotype CMY-2, read-out: MIC): 64 µg/mL
MIC ([1]; Proteus mirabilis, strain PMI UFR122, genotype TEM-1, CTX-M-15, read-out: MIC): 64 µg/mL
MIC ([1]; Proteus mirabilis, strain PMI UFR127, genotype VEB-1, read-out: MIC): 128 µg/mL
MIC ([1]; Proteus mirabilis, strain PMI UFR130, genotype CMY-2, read-out: MIC): 128 µg/mL
MIC ([2]; Salmonella enterica, TYPHIMURIUM): 4 µg/mL
MIC ([3]; Providencia stuartii, strain PST UFR94, genotype CTX-M-14, read-out: MIC): 32 µg/mL
MIC ([3]; Providencia stuartii, strain PST UFR95, genotype TEM-24, read-out: MIC): 16 µg/mL
MIC ([3]; Providencia stuartii, strain PST UFR235, genotype VEB-1, read-out: MIC): 128 µg/mL
MIC [4]: > 128 µg/mL
MIC ([5]; Citrobacter koseri, strain CKO ROU, genotype TEM-1, SHV-12, CTX-M-15, OXA-1, OXA-48, read-out: MIC): 4 µg/mL
MIC ([5]; Citrobacter koseri, strain CKO UFR150, genotype TEM-1, OXA-48, read-out: MIC): 16 µg/mL

CC(C)(O/N=C(\C(=O)N[C@@H]1C(=O)N2C(C(=O)[O-])=C(C[n+]3ccccc3)CS[C@H]12)c1csc(N)n1)C(=O)O [CAZ, Ceftazidime]
MIC ATB in combination ([1]; PMI UFR82, AF2 @ 8 μg/mL): <0.25 µg/mL
MIC ATB in combination ([1]; PMI UFR82, AF3 @ 8 μg/mL): <0.25 µg/mL
MIC ATB in combination ([1]; PMI UFR126, AF2 @ 8 μg/mL): <0.25 µg/mL
MIC ATB in combination ([1]; PMI UFR126, AF3 @ 8 μg/mL): <0.25 µg/mL
MIC ATB in combination ([1]; PMI UFR127, AF2 @ 8 μg/mL): <0.25 µg/mL
MIC ATB in combination ([1]; PMI UFR127, AF3 @ 8 μg/mL): <0.25 µg/mL
MIC ATB in combination ([1]; PMI UFR128, AF2 @ 8 μg/mL): <0.25 µg/mL
MIC ATB in combination ([1]; PMI UFR128, AF3 @ 8 μg/mL): <0.25 µg/mL
MIC ATB in combination ([1]; PMI UFR129, AF2 @ 8 μg/mL): <0.25 µg/mL
MIC ATB in combination ([1]; PMI UFR129, AF3 @ 8 μg/mL): <0.25 µg/mL
MIC ATB in combination ([1]; PMI UFR130, AF2 @ 8 μg/mL): <0.25 µg/mL
MIC ATB in combination ([1]; PMI UFR130, AF3 @ 8 μg/mL): <0.25 µg/mL
MIC ATB in combination ([1]; PMI UFR133, AF2 @ 8 μg/mL): <0.25 µg/mL
MIC ATB in combination ([1]; PMI UFR133, AF3 @ 8 μg/mL): <0.25 µg/mL
MIC ATB in combination ([1]; PMI UFR237, AF2 @ 8 μg/mL): <0.25 µg/mL
MIC ATB in combination ([1]; PMI UFR237, AF3 @ 8 μg/mL): <0.25 µg/mL
MIC ([1]; strain PMI UFR82, genotype CMY-2): 4 µg/mL
MIC ([1]; strain PMI UFR120, genotype TEM-1, SHV-11, CTX-M-14): <=0.25 μg/mL
MIC ([1]; strain PMI UFR121, genotype TEM-1, TEM-52): 16 µg/mL
MIC ([1]; strain PMI UFR122, genotype TEM-1, CTX-M-15): 1 µg/mL
MIC ([1]; strain PMI UFR123, genotype CTX-M-1): 2 µg/mL
MIC ([1]; strain PMI UFR124, genotype CTX-M-2): 2 µg/mL
MIC ([1]; strain PMI UFR125, genotype CTX-M-71): 2 µg/mL
MIC ([1]; strain PMI UFR126, genotype TEM-2, PER-1): >128 µg/mL
MIC ([1]; strain PMI UFR127, genotype VEB-1): >128 µg/mL
MIC ([1]; strain PMI UFR128, genotype VEB-1, OXA-10): >128 µg/mL
MIC ([1]; strain PMI UFR129, genotype TEM-1, VEB-6): >128 µg/mL
MIC ([1]; strain PMI UFR130, genotype CMY-2): 4 µg/mL
MIC ([1]; strain PMI UFR131, genotype CMY-16, OXA-1, OXA-10, NDM-1, ArmA): >128 µg/mL
MIC ATB in combination ([1]; strain PMI UFR131, with AF2 @ 8 μg/mL): <0.25 µg/mL
MIC ATB in combination ([1]; strain PMI UFR131, with AF3 @ 8 μg/mL): <0.25 µg/mL
MIC ([1]; strain PMI UFR132, genotype VEB-6, DHA-1, NDM-1, AphA6, AacA4): >128 µg/mL
MIC ATB in combination ([1]; strain PMI UFR132, with AF2 @ 8 μg/mL): <0.25 µg/mL
MIC ATB in combination ([1]; strain PMI UFR132, with AF3 @ 8 μg/mL): <0.25 µg/mL
MIC ([1]; strain PMI UFR133, genotype OXA-23): <=0.25 μg/mL
MIC ([1]; strain PMI UFR237, genotype VEB-6): >128 µg/mL
MIC ATB in combination ([2]; AF2 @ 8 μg/mL): <0.25 µg/mL
MIC ATB in combination ([2]; AF3 @ 8 μg/mL): <0.25 µg/mL
MIC ([2]; strain STY S3371, genotype OXA-1): 0.5 µg/mL
MIC ATB in combination ([3]; PST UFR94, AF2 @ 8 μg/mL): <=0.25 μg/mL
MIC ATB in combination ([3]; PST UFR94, AF3 @ 8 μg/mL): <=0.25 μg/mL
MIC ATB in combination ([3]; PST UFR95, AF2 @ 8 μg/mL): <=0.25 μg/mL
MIC ATB in combination ([3]; PST UFR95, AF3 @ 8 μg/mL): <=0.25 μg/mL
MIC ATB in combination ([3]; PST UFR120, AF2 @ 8 μg/mL): <0.25 µg/mL
MIC ATB in combination ([3]; PST UFR120, AF3 @ 8 μg/mL): <0.25 µg/mL
MIC ATB in combination ([3]; PST UFR121, AF2 @ 8 μg/mL): <0.25 µg/mL
MIC ATB in combination ([3]; PST UFR121, AF3 @ 8 μg/mL): <0.25 µg/mL
MIC ATB in combination ([3]; PST UFR122, AF2 @ 8 μg/mL): <0.25 µg/mL
MIC ATB in combination ([3]; PST UFR122, AF3 @ 8 μg/mL): <0.25 µg/mL
MIC ATB in combination ([3]; PST UFR123, AF2 @ 8 μg/mL): <=0.25 μg/mL
MIC ATB in combination ([3]; PST UFR123, AF3 @ 8 μg/mL): <0.25 µg/mL
MIC ATB in combination ([3]; PST UFR124, AF2 @ 8 μg/mL): <=0.25 μg/mL
MIC ATB in combination ([3]; PST UFR124, AF3 @ 8 μg/mL): <0.25 µg/mL
MIC ATB in combination ([3]; PST UFR125, AF2 @ 8 μg/mL): <=0.25 μg/mL
MIC ATB in combination ([3]; PST UFR125, AF3 @ 8 μg/mL): <0.25 µg/mL
MIC ATB in combination ([3]; PST UFR235, AF2 @ 8 μg/mL): <=0.25 μg/mL
MIC ATB in combination ([3]; PST UFR235, AF3 @ 8 μg/mL): <=0.25 μg/mL
MIC ([3]; strain PST UFR94, genotype CTX-M-14): 1 µg/mL
MIC ([3]; strain PST UFR95, genotype TEM-24): 64 µg/mL
MIC ([3]; strain PST UFR98, genotype TEM-1, CMY-6, OXA-1, NDM-1, RmtC): >256 µg/mL
MIC ATB in combination ([3]; strain PST UFR98, with AF2 @ 8 μg/mL): >128 µg/mL
MIC ATB in combination ([3]; strain PST UFR98, with AF3 @ 8 μg/mL): <0.25 µg/mL
MIC ([3]; strain PST UFR235, genotype VEB-1): >128 µg/mL
MIC ATB in combination ([5]; CKO ROU, AF2 @ 8 μg/mL): 1 µg/mL
MIC ATB in combination ([5]; CKO ROU, AF3 @ 8 μg/mL): 1 µg/mL
MIC ATB in combination ([5]; CKO UFR149, AF2 @ 8 μg/mL): <0.25 µg/mL
MIC ATB in combination ([5]; CKO UFR149, AF3 @ 8 μg/mL): <0.25 µg/mL
MIC ATB in combination ([5]; CKO UFR150, AF2 @ 8 μg/mL): 4 µg/mL
MIC ATB in combination ([5]; CKO UFR150, AF3 @ 8 μg/mL): 4 µg/mL
MIC ([5]; strain CKO ROU, genotype TEM-1, SHV-12, CTX-M-15, OXA-1, OXA-48): 1 µg/mL
MIC ([5]; strain CKO UFR149, genotype OXA-48): >128 µg/mL
MIC ([5]; strain CKO UFR150, genotype TEM-1, OXA-48): 4 µg/mL
